This is an account of results in US20230174507A1, “IMIDAZOLE 3-OXIDE DERIVATIVE BASED ACSS2 INHIBITORS AND METHODS OF USE THEREOF” (METABOMED LTD., priority 2020, published 2023).

The target of one test is T1, human ACSS2 protein (Homo sapiens, UniProt Q9NR19).
T1 construct: purchased OriGene Technologies, Inc
The test can be described thus: ACSS2 cell-free activity assay (pyrophosphatase-coupled, Biomol green). Conditions: 10 nM human ACSS2, 90 minutes at 37 C, absorbance at 620 nm; read-out: ACSS2 Biochemical IC50; call rule not given here. The method, boiled down:
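10 nM human ACSS2 incubated 90 min at 37 C with compound, 300 μM ATP, 10 μM CoA, 5 mM NaAc in pH 7.5 Hepes buffer with 0.5 U/ml pyrophosphatase. Released phosphate detected with Biomol Green at 620 nm; IC50 by non-linear regression constrained to 0% and 100%.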

The next test has as its target T2, human ACSS1 protein (Homo sapiens, UniProt Q9NUB1).
T2 construct: purchased MyBioSource
T2 sequence (Q9NUB1 38-689): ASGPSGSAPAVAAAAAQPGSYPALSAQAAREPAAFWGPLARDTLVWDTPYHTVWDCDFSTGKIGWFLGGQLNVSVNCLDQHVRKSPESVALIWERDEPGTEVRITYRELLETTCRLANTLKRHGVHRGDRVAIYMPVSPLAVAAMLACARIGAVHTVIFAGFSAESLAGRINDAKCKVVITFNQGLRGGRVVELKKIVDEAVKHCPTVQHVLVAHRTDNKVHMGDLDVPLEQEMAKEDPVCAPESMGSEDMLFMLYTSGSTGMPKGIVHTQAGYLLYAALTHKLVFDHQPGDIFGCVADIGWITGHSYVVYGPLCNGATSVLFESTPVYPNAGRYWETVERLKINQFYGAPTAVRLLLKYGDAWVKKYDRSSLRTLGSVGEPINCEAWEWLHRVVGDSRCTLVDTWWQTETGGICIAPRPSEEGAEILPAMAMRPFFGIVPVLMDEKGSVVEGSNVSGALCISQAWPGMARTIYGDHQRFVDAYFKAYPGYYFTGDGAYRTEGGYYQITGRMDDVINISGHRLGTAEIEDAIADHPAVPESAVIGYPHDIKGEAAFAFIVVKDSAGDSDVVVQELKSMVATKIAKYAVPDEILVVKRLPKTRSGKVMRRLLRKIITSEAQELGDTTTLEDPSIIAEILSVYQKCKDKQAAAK
The test can be described thus: ACSS1 cell-free activity assay (pyrophosphatase-coupled, Biomol green). In kind it is biochemical. The conditions noted are these: 5 nM human ACSS1, 30 minutes at room temperature, absorbance at 620 nm. The method, boiled down: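 5 nM human ACSS1 incubated 30 min at RT with compound in pH 7.5 Hepes buffer with 15 μM CoA, 5 mM acetate, 300 μM ATP, 2 mM MgCl2 and pyrophosphatase. Released phosphate detected with Biomol Green (30 min), absorbance 620 nm. IC50 from constrained non-linear regression.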

The target of test [1] is T3, ACSS2 in MDA-MB-468 cells (Homo sapiens, UniProt Q9NR19).
T3 construct: endogenous in cells; host or cells: MDA-MB-468 cells, hypoxia (1% O2)
The test can be described thus: Cellular fatty-acid IC50: 13C-acetate incorporation into fatty acids (palmitate), LC-MS. Conditions: hypoxic conditions (1% O2), 75% charcoal stripped serum, 5 hours, 13C-acetate into palmitate, read-out: Cellular Fatty-acid IC50 High Serum MDA468. In kind it is cell-based. How it is done:
Cellular Fatty-Acid IC50 Determination:
The cellular activity of ACSS2 was measured in MDA-MB-468 cells under hypoxic conditions by tracing the incorporation of labelled carbons from ^13C-acetate into newly synthesized fatty acids. The assay was performed using 75% charcoal stripped serum (high serum conditions).
MDA-MB-468 cells were seeded in 12-well plates (0.35×10^6 cells per well) in plating medium (Dulbecco's Modified Eagle Medium containing 25 mM D-glucose, 1 mM sodium pyruvate, 10% v/v fetal bovine serum, and 2 mM glutamine) and incubated for 24 hours under hypoxic conditions (1% O2).
The next day, tracing medium containing DMEM (01-057-1A) containing 75% charcoal stripped serum (Biological industries 04-201-1A), 3.5 μg/mL Biotin (Sigma-Aldrich B4639), 1 mM Pyruvate, 5.5 mM Glucose, 0.65 mM Glutamine and 0.5 mM ^13C-Acetate (Sigma-Aldrich #282014) with serial dilutions of the compounds in the range of 0.000512-1000 nM were prepared. The plating medium was replaced with 1 mL tracing medium plus compounds and the cells were incubated for 5 hours under hypoxic conditions (1% O2). Plating medium in control wells (without cells or without compounds) was replaced with 1 mL tracing medium containing 0.01% v/v DMSO.
The level of ^13C-acetate incorporation into fatty acids (palmitate) was measured by LC-MS analysis and IC50 as described below:
Sample Preparation for LC-MS
• a) Cells were washed twice with cold phosphate buffered saline (PBS), scraped into 0.5 mL EDTA pH 8.0, and transferred into 1.1 mL V-shaped HPLC glass tubes. • b) The cell suspensions were centrifuged for 5 minutes at 400×g, 4° C. and the supernatants were removed. • c) Cell pellets were frozen at −80° C.
• d) Cell pellets were resuspended in 0.2 mL of 80% v/v ethanol in water containing 0.02 M NaOH in 1.1 ml glass (v-bottom) HPLC vials. • e) The vials were closed tight and incubated at 66° C. for 60 minutes. • f) Acetonitrile containing 2% v/v formic acid (150 μL) was added to each vial and the mixtures were transferred to Eppendorf tubes for centrifugation at 17 000×g for 20 minutes. • g) Supernatants were transferred to LC-MS vials.
The relative palmitate concentration was measured by LC-MS in reconstructed selected ion monitoring (RSIM) mode and negative ion mode. Samples were analyzed on a Phenomenex Kinetex 2.6 μm XB-C18 150×2.1 mm column at 45° C. (0.4 mL/minute flow rate) using: • a) A gradient from 15% A/85% C to 100% C for 0 to 2 minutes (A: water containing 5% v/v acetonitrile, 10 mM ammonium acetate, and 10 mM acetic acid; C: a mixture of 50% v/v acetonitrile and 50% v/v methanol). • b) Isocratic flow (100% C) for 2 to 5 minutes. • c) Equilibration in isocratic conditions (15% A/85% C) for 5 to 8 minutes.
Palmitate was eluted at approximately 3.4 minutes.
The percent inhibition was calculated relative to the sample without compound and after background deduction. IC50 values were calculated using non-linear regression curve fit analysis with 0% and 100% constraints (CDD Vault, Collaborative Drug Discovery, Inc. or GraphPad Prism).
The inhibitory activities of each compound against ACSS2 in MDA-MB-468 cells under high serum conditions, as determined by ^13C-acetate incorporation into fatty acids (palmitate), are presented in Table 2.

In general, IC50 refers to the concentration that inhibits the measured activity by half.

T1 sequence (Q9NR19 whole entry): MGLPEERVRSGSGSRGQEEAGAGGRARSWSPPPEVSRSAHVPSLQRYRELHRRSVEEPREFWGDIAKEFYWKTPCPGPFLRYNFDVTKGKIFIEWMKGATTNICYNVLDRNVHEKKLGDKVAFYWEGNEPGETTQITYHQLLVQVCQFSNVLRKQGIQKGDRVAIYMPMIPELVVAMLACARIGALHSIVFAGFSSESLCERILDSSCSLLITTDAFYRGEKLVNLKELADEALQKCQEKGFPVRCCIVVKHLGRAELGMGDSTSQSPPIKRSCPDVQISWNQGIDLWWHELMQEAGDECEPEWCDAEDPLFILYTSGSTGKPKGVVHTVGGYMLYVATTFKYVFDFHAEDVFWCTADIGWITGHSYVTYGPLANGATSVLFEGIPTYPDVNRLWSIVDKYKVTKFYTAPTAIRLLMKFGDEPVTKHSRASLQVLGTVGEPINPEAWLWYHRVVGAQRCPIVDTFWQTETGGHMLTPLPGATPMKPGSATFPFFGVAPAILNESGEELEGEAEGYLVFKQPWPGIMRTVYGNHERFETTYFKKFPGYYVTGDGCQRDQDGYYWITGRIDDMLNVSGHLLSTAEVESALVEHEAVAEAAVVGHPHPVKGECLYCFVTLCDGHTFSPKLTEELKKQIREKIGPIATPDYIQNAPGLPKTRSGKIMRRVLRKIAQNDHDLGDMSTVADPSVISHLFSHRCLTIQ
T3 sequence (Q9NR19 whole entry): as above

Consider `Cc1cccc(C)c1-c1cc(-c2[nH]c(C)c(C(=O)Nc3cccc(C(F)(F)C4CC4)c3)[n+]2[O-])ccc1OC(F)F` [Compound 113, N-[3-[cyclopropyl(difluoro)methyl]phenyl]-2-[4-(difluoromethoxy)-3-(2,6-dimethylphenyl)phenyl]-5-methyl-3-oxido-1H-imidazol-3-ium-4-carboxamide], for which the IC50 was under 0.001 µM on human ACSS2 protein and 0.02 to 0.05 µM in test [1]. Further, the “ACSS1 Biochemical IC50 (nM)” value at human ACSS1 protein is “Inactive”.
For the compound `CCC(F)(F)c1cccc(NC(=O)c2c(C)[nH]c(-c3ccc(C#N)c(-c4c(C)cccc4C)c3)[n+]2[O-])c1` [Compound 114, 2-(6-cyano-2′,6′-dimethyl-[1,1′-biphenyl]-3-yl)-4-((3-(1,1-difluoropropyl)phenyl)carbamoyl)-5-methyl-1H-imidazole 3-oxide], the IC50 at human ACSS2 protein was under 0.001 µM; on human ACSS1 protein (read-out: ACSS1 Biochemical IC50) it was over 0.03 µM; in test [1] it was under 0.02 µM.
For the compound `Cc1cncc(C)c1-c1cc(-c2[nH]c(C)c(C(=O)Nc3cccc(C(F)(F)C4CC4)c3)[n+]2[O-])ccc1OC(F)F` [Compound 115, 4-((3-(cyclopropyldifluoromethyl)phenyl)carbamoyl)-2-(4-(difluoromethoxy)-3-(3,5-dimethylpyridin-4-yl)phenyl)-5-methyl-1H-imidazole 3-oxide], the half-inhibitory concentration (IC50) is under 0.001 µM on human ACSS2 protein and under 0.02 µM in test [1]. Also, on human ACSS1 protein, the “ACSS1 Biochemical IC50 (nM)” value was “Inactive”.
For `CCC(F)(F)c1cccc(NC(=O)c2c(C)[nH]c(-c3cccc(-c4c(C)cnnc4C)c3)[n+]2[O-])c1` [Compound 116, 4-((3-(1,1-difluoropropyl)phenyl)carbamoyl)-2-(3-(3,5-dimethylpyridazin-4-yl)phenyl)-5-methyl-1H-imidazole 3-oxide] the same measures were under 0.001 µM, under 0.02 µM and “Inactive”.
For `COc1ccc(-c2[nH]c(C)c(C(=O)Nc3cccc(C(=O)N(C)C)c3)[n+]2[O-])cc1-c1c(C)cccc1C` [Compound 119, 4-((3-(dimethylcarbamoyl)phenyl)carbamoyl)-2-(6-methoxy-2′,6′-dimethyl-[1,1′-biphenyl]-3-yl)-5-methyl-1H-imidazole 3-oxide] the same measures were under 0.001 µM, under 0.02 µM and “Inactive”.
For `COc1ccc(-c2[nH]c(C)c(C(=O)Nc3cccc(C(C)(F)F)c3)[n+]2[O-])cc1-c1c(C)cccc1C` [Compound 120, 4-((3-(1,1-difluoroethyl)phenyl)carbamoyl)-2-(6-methoxy-2′,6′-dimethyl-[1,1′-biphenyl]-3-yl)-5-methyl-1H-imidazole 3-oxide] the same measures were under 0.001 µM, under 0.02 µM and “Inactive”.
`CCC(F)(F)c1cccc(NC(=O)c2c(C)[nH]c(-c3cc(-c4c(C)cccc4C)c(OC)cc3O)[n+]2[O-])c1` [Compound 123, 4-((3-(1,1-difluoropropyl)phenyl)carbamoyl)-2-(4-hydroxy-6-methoxy-2′,6′-dimethyl-[1,1′-biphenyl]-3-yl)-5-methyl-1H-imidazole 3-oxide]: the figures for the concentration for half-maximal inhibition (IC50) (at human ACSS2 protein; in test [1]) were under 0.001 µM and under 0.02 µM, respectively. Moreover, at human ACSS1 protein, the “ACSS1 Biochemical IC50 (nM)” value was “Inactive”.
For `CCC(F)(F)c1cccc(NC(=O)c2c(C)[nH]c(-c3cc(-c4c(C)cccc4C)c(OC)cc3N)[n+]2[O-])c1` [Compound 124], in that order: under 0.001 µM, over 0.05 µM and “Inactive”.
For `CCC(F)(F)c1cccc(NC(=O)c2c(C)[nH]c(-c3cc(-c4c(C)cccc4C)c(OC)cc3F)[n+]2[O-])c1` [Compound 125, 4-((3-(1,1-difluoropropyl)phenyl)carbamoyl)-2-(4-fluoro-6-methoxy-2′,6′-dimethyl-[1,1′-biphenyl]-3-yl)-5-methyl-1H-imidazole 3-oxide] the same measures were under 0.001 µM, under 0.02 µM and “Inactive”.
With `CCC(F)(F)c1cccc(NC(=O)c2c(C)[nH]c(-c3ccc(OC)c(-c4c(Cl)cccc4Cl)c3)[n+]2[O-])c1` [Compound 126, 2-(2′,6′-dichloro-6-methoxy-[1,1′-biphenyl]-3-yl)-4-((3-(1,1-difluoropropyl)phenyl)carbamoyl)-5-methyl-1H-imidazole 3-oxide], the figures for the half-inhibitory concentration (IC50) (on human ACSS2 protein; in test [1]) were under 0.001 µM and 0.02 to 0.05 µM, respectively. Also, the “ACSS1 Biochemical IC50 (nM)” value on human ACSS1 protein is given as “Inactive”.
For `Cc1cccc(C)c1-c1cc(F)cc(-c2[nH]c(C)c(C(=O)Nc3cccc(C(F)(F)C4CC4)c3)[n+]2[O-])c1` [Compound 129, 4-((3-(cyclopropyldifluoromethyl)phenyl)carbamoyl)-2-(5-fluoro-2′,6′-dimethyl-[1,1′-biphenyl]-3-yl)-5-methyl-1H-imidazole 3-oxide] the same measures were under 0.001 µM, over 0.05 µM and “Inactive”.
Turning to `COc1cc(-c2c(C)cccc2C)cc(-c2[nH]c(C)c(C(=O)Nc3cccc(C(F)(F)C4CC4)c3)[n+]2[O-])c1` [Compound 131, 4-((3-(cyclopropyldifluoromethyl)phenyl)carbamoyl)-2-(5-methoxy-2′,6′-dimethyl-[1,1′-biphenyl]-3-yl)-5-methyl-1H-imidazole 3-oxide], the IC50 is under 0.001 µM on human ACSS2 protein and 0.02 to 0.05 µM in test [1]. Also, the “ACSS1 Biochemical IC50 (nM)” value on human ACSS1 protein is listed as “Inactive”.
For `Cc1cccc(C)c1-c1cc(C#N)cc(-c2[nH]c(C)c(C(=O)Nc3cccc(C(F)(F)C4CC4)c3)[n+]2[O-])c1` [Compound 135, 2-(5-cyano-2′,6′-dimethyl-[1,1′-biphenyl]-3-yl)-4-((3-(cyclopropyldifluoromethyl)phenyl)carbamoyl)-5-methyl-1H-imidazole 3-oxide], in that order: under 0.001 µM, 0.02 to 0.05 µM and “Inactive”.
